From US20110269763A1, “CRTH2 receptor ligands for medicinal uses” (7TM Pharma A/S, priority 2004, published 2011) come the findings set out here.

Assay [1] has as its target T1, human CRTH2 (Homo sapiens, UniProt Q9Y5Y4, V204A).
T1 sequence (Q9Y5Y4 1-395 V204A): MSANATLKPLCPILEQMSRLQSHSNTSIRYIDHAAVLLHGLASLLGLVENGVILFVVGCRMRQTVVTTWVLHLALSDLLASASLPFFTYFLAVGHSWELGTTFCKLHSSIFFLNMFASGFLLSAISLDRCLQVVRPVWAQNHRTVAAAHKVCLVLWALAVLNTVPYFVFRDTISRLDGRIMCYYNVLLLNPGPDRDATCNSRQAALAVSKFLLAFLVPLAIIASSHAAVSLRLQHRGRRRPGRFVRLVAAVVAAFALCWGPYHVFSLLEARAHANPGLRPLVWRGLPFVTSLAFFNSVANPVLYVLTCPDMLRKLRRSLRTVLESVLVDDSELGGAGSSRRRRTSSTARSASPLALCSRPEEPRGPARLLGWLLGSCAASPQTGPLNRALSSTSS
Description: Receptor binding assay: [3H]PGD2 competition binding on whole COS-7 cells transiently transfected with CRTH2 (also stable HEK293 cells). Also on record: expressed in transfected cells; host or cells: COS-7 (transient, calcium phosphate). The source says:
(§1) Generation/origin of the cDNA Constructs. The coding sequence of the human CRTH2 receptor (genbank accession no NM_004778) was amplified by PCR from a human hippocampus cDNA library and inserted into the pcDNA3.1(+) expression vector (invitrogen) via 5′ HindIII and 3′ EcoRI. To generate a CRTH2-Renilla luciferase (CRTH2-Rluc) fusion protein, the CRTH2 coding sequence without a STOP codon and Rluc were amplified, fused in frame by PCR and subcloned into the pcDNA3.1(+)Zeo expression vector (invitrogen). Human β-arrestin2 (β-arr2) N-terminally tagged with GFP^2 (βarr2-GFP^2) and Renilla luciferase were purchased from BioSignal Packard Inc, (Montreal, Canada). The sequence identity of the construct was verified by restriction endonuclease digests and sequencing in both directions on an ABI Prism (Applied Biosystems, Foster City, Calif.).
(§2) Cell Culture and Transfection. COS-7 cells were grown in Dulbecco's modified Eagle's medium (DMEM) 1885 supplemented with 10% fetal bovine serum, 100 units/ml penicillin, […] streptomycin, and kept at 37° C. in a 10% CO2 atmosphere. HEK293 cells were maintained in Minimum Essential medium (MEM) supplemented with 10% (v/v) heat inactivated fetal calf serum (HIFCS), 2 mM Glutamax™-I, 1% non essential amino acids (NEAA), 1% sodium pyruvate and 10 μg/ml gentamicin. For binding experiments, COS7 cells were transiently transfected with the CRTH2 receptor using a calcium phosphate-DNA coprecipitation method with the addition of chloroquine (as described by Holst et al., 2001↓). To perform the functional Bioluminescence Resonance Energy Transfer (BRET) assays, a HEK293 cell clone stably expressing βarr2-GFP^2 and CRTH2-Rluc was generated (CRTH2-HEK293 cells).
Binding assay. 24 h after transfection COS-7 cells were seeded into 96 well plates at a density of 30.000 cells/well. Competition binding experiments on whole cells were then performed about 18-24 h later using 0.1 nM [^3H]PGD2 (NEN, 172 Ci/mmol) in a binding buffer consisting of HBSS (GIBCO) and 10 mM HEPES. Competing ligands were diluted in DMSO which was kept constant at 1% (v/v) of the final incubation volume. Total and nonspecific binding were determined in the absence and presence of 10 μM PGD2. Binding reactions were routinely conducted for 3 h at 4° C. and terminated by 2 washes (100 μl each) with ice cold binding buffer. Radioactivity was determined by liquid scintillation counting in a TOPCOUNTER (Packard) following over night incubation in Microscint 20. Stable HEK293 cells were seeded at a density of 30.000 cells/well 18-24 h prior to the binding assay which was performed essentially as described for COS7 cells above. Determinations were made in duplicates.
(§3) Curve analysis was performed with the GraphPadPrism software 3.0 (Graphpad Prism Inc., San Diego, USA) and IC50 values were calculated as a measure of the antagonistic potencies.

Assay [2] concerns the target T1, human CRTH2. As to the kind of experiment: Functional antagonist BRET assay on HEK293 cells stably expressing human CRTH2-Rluc and GFP2-β-arr2. The format is cell-based. Also on record: expressed in transfected cells. The conditions noted are these: read-out: Antag. IC50.
Excerpt: as §1, §2
BRET assay. Functional BRET assays were performed on HEK293 cells stably expressing human CRTH2-Rluc and GFP^2-β-arr2. Prior to their use in the BRET assay cells were detached and re-suspended in D-PBS with 1000 mg/L L-Glucose at a density of 2×10^6 cells/mL. DeepBlueC™ was diluted to 50 μM in D-PBS with 1000 mg/L L-Glucose (light sensitive). 100 μL of cell suspension was transferred to wells in a 96-well microplate (white OptiPlate) and placed in the Mithras LB 940 instrument (BERTHOLD TECHNOLOGIES, Bad Wildbad, Germany). 12 μL/well agonist was then injected by injector 1 and 10 μL/well DeepBlueC™ was injected simultaneously by injector 2. Five seconds after the injections the light output from the well was measured sequentially at 400 nm and 515 nm, and the BRET signal (mBRET ratio) was calculated by the ratio of the fluorescence emitted by GFP^2-β-arr2 (515 nm) over the light emitted by the receptor-Rluc (400 nm). Antagonists were added before placing the microplates into the Mithras LB 940 and allowed to incubate for 15 minutes prior to the addition of agonist and DeepBlueC™. Compounds were dissolved in DMSO and the final DMSO concentration was kept constant at 1% in the assay.
as §3
For orientation: In BRET a luciferase serves as donor, and the signal depends on an acceptor being close.

Where [3] appears, read: competition with 0.1 nM [3H]PGD2, whole cells, 3 h at 4° C.
[4] abbreviates: BRET, antagonist incubated 15 minutes prior to agonist.
The mark [5] stands for this setting: receptor binding assay, Table 3.
The mark [6] stands for this setting: functional antagonist assay, Table 3.

Usually IC50 stands for the concentration that inhibits the measured activity by half. With `CC(Oc1ccc(Br)cc1C(=O)c1cnn(-c2c(Cl)cccc2Cl)c1)C(=O)O` (stereo not drawn) [D39, 2-{4-Bromo-2-[1-(2,6-dichlorophenyl)-1H-pyrazole-4-carbonyl]phenoxy}propionic acid], the IC50 in assay [1] (setting [3]) and in assay [2] (setting [4]) was under 500 nM throughout.

Consider `O=C(O)COc1ccc(F)cc1C(=O)c1cnn(-c2ccccc2)c1` [D3, 4-Fluoro-2-(1-phenyl-1H-pyrazole-4-carbonyl)phenoxyacetic acid], for which the values for the IC50 in assay [1] (setting [3]) and in assay [2] (setting [4]) were under 500 nM and 500 to 5000 nM, respectively.

Consider `O=C(O)COc1ccc(Br)cc1-c1coc(-c2ccccc2)n1` [D83, [4-Bromo-2-(2-phenyloxazol-4-yl)phenoxy]acetic acid], for which the IC50 was under 500 nM in assay [1] (setting [3]) and over 5000 nM in assay [2] (setting [4]).

In the case of `CCCCc1ccc(OCC(=O)O)c(C(=O)c2cnn(-c3ccccc3)c2)c1` [D75, [4-Butyl-2-(1-phenyl-1H-pyrazole-4-carbonyl)phenoxy]acetic acid], the IC50 is under 500 nM in assay [1] (setting [3]) and over 5000 nM in assay [2] (setting [4]).

Regarding `CCc1cccc(CC)c1-n1cc(C(=O)c2cc(Br)ccc2OCC(=O)O)cn1` [D70, {4-Bromo-2-[1-(2,6-diethyl-phenyl)-1H-pyrazole-4-carbonyl]phenoxy}acetic acid], the IC50 in assay [1] (setting [3]) and in assay [2] (setting [4]) was under 500 nM throughout.

On to `COc1ccc(Cc2nc(-c3cc(Br)ccc3OCC(=O)O)co2)cc1` [D92, {4-Bromo-2-[2-(4-methoxybenzyl)oxazol-4-yl]phenoxy}acetic acid], for which the IC50 in assay [1] (setting [3]) and in assay [2] (setting [4]) was under 500 nM in each case.

As to `O=C(O)COc1ccc(Br)cc1-c1coc(Cc2ccccc2)n1` [D88, [2-(2-Benzyloxazol-4-yl)-4-bromophenoxy]acetic acid], the IC50 in assay [1] (setting [3]) and in assay [2] (setting [4]) was under 500 nM each time.

Regarding `Cc1cccc(Cl)c1-n1cc(C(=O)c2cc(Br)ccc2OCC(=O)O)cn1` [D76, {4-Bromo-2-[1-(2-chloro-6-methylphenyl)-1H-pyrazole-4-carbonyl]phenoxy}acetic acid], the IC50 in assay [1] (setting [3]) and in assay [2] (setting [4]) was under 500 nM in each case.

`Cc1cccc(C)c1-n1cc(C(=O)c2cc(Br)ccc2OCC(=O)O)cn1` [D71, {4-Bromo-2-[1-(2,6-dimethylphenyl)-1H-pyrazole-4-carbonyl]phenoxy}acetic acid]: the IC50 in assay [1] (setting [3]) and in assay [2] (setting [4]) was under 500 nM in each case.

Regarding `O=C(O)COc1ccc(Br)cc1-c1coc(Cc2ccc(F)cc2Cl)n1` [D90, {4-Bromo-2-[2-(2-chloro-4-fluorobenzyl)oxazol-4-yl]phenoxy}acetic acid], the IC50 in assay [1] (setting [3]) and in assay [2] (setting [4]) was under 500 nM throughout.

Consider `O=C(O)COc1ccc(Br)cc1-c1coc(-c2ccc(Cl)cc2)n1` [D85, {4-Bromo-2-[2-(4-chlorophenyl)oxazol-4-yl]phenoxy}acetic acid], for which the IC50 was under 500 nM in assay [1] (setting [3]) and over 5000 nM in assay [2] (setting [4]).

Turning to `Cc1ccc(OCC(=O)O)c(C(=O)c2cnn(-c3ccccc3)c2)c1` [D11, [4-Methyl-2-(1-phenyl-1H-pyrazole-4-carbonyl)phenoxy]acetic acid], the IC50 is under 500 nM in assay [1] (setting [3]) and 500 to 5000 nM in assay [2] (setting [4]).

For the compound `CC1(Cc2cc(Br)ccc2OCC(=O)O)SC(=O)N(Cc2ccc(Cl)cc2)C1=O` (stereo not drawn) [D146, 4-Bromo-2-[3-(4-chlorobenzyl)-5-methyl-2,4-dioxothiazolidin-5-ylmethyl]phenoxyacetic acid], the IC50 in assay [1] (setting [3]) and in assay [2] (setting [4]) was under 500 nM in each case.

In the case of `CC(Oc1ccc(Br)cc1C(=O)c1cnn(-c2ccccc2Cl)c1)C(=O)O` (stereo not drawn) [D38, 2-{4-Bromo-2-[1-(2-chlorophenyl)-1-H-pyrazole-4-carbonyl]phenoxy}propionic acid], the IC50 in assay [1] (setting [3]) and in assay [2] (setting [4]) was under 500 nM in each case.

With `CCc1cccc(C)c1-n1cc(C(=O)c2cc(Br)ccc2OCC(=O)O)cn1` [D72, {4-Bromo-2-[1-(2-ethyl-6-methylphenyl)-1H-pyrazole-4-carbonyl]phenoxy}acetic acid], the IC50 in assay [1] (setting [3]) and in assay [2] (setting [4]) was under 500 nM throughout.

`COc1ccc(-n2cc(C(=O)c3cc(Br)ccc3OCC(=O)O)cn2)cc1` [D7, 4-Bromo-2-[1-(4-methoxyphenyl)-1H-pyrazole-4-carbonyl]phenoxyacetic acid]: the IC50 in assay [1] (setting [3]) and in assay [2] (setting [4]) was under 500 nM each time.

Consider `O=C(O)COc1ccc(Br)cc1CC1SC(=O)N(Cc2cccc(Cl)c2)C1=O` (stereo not drawn) [D144, 4-Bromo-2-[3-(3-chlorobenzyl)-2,4-dioxothiazolidin-5-ylmethyl]phenoxyacetic acid], for which the IC50 in assay [1] (setting [3]) and in assay [2] (setting [4]) was under 500 nM in each case.

For `O=C(O)COc1ccc(-c2cc(F)cc(F)c2)cc1C(=O)c1cnn(-c2ccccc2)c1` [D8, [3′,5′-Difluoro-3-(1-phenyl-1H-pyrazole-4-carbonyl)biphenyl-4-yloxy]acetic acid], the IC50 in assay [1] (setting [3]) was under 500 nM; in assay [2] (setting [4]), 500 to 5000 nM.

Regarding `COc1ccc(OCC(=O)O)c(C(=O)c2cnn(-c3ccccc3)c2)c1` [D36, 4-Methoxy-2-[1-phenyl-1H-pyrazole-4-carbonyl]phenoxyacetic acid], the figures for the IC50 in assay [1] (setting [3]) and in assay [2] (setting [4]) were under 500 nM and 500 to 5000 nM, respectively.

With `COc1cc(Cc2noc(-c3cc(Br)ccc3OCC(=O)O)n2)cc(OC)c1` [D128, {4-Bromo-2-[3-(3,5-dimethoxybenzyl)-[1,2,4]oxadiazol-5-yl]phenoxy}acetic acid], the IC50 in assay [1] (setting [5]) was under 500 nM; in assay [2] (setting [6]) it was 500 to 5000 nM.

In the case of `C[C@H](Oc1ccc(Br)cc1C(=O)c1cnn(-c2ccccc2)c1)C(=O)O` [(S)-D37, 2(S)-[4-Bromo-2-(1-phenyl-1H-pyrazole-4-carbonyl)-phenoxy]-propionic acid], the IC50 in assay [1] (setting [3]) and in assay [2] (setting [4]) was under 500 nM throughout.

Consider `CC(=O)Nc1ccc(Cc2noc(-c3cc(Br)ccc3OCC(=O)O)n2)cc1` [D131, {2-[3-(4-Acetylaminobenzyl)-[1,2,4]oxadiazol-5-yl]-4-bromophenoxy}acetic acid], for which the IC50 in assay [1] (setting [5]) and in assay [2] (setting [6]) was under 500 nM throughout.

Take `COc1ccc(-c2ccc(-c3nc(-c4cc(Br)ccc4OCC(=O)O)no3)cc2)cc1` [D134, {4-Bromo-2-[5-(4′-methoxybiphenyl-4-yl)-[1,2,4]oxadiazol-3-yl]phenoxy}acetic acid]: the IC50 in assay [1] (setting [3]) and in assay [2] (setting [4]) was under 500 nM each time.

As to `O=C(O)COc1ccc(Br)cc1-c1nc(-c2ccccc2Cl)no1` [D108, {4-Bromo-2-[3-(2-chlorophenyl)-[1,2,4]oxadiazol-5-yl]phenoxy}acetic acid], the IC50 in assay [1] (setting [5]) and in assay [2] (setting [6]) was under 500 nM throughout.
